Measurements reported in ChEMBL document CHEMBL1125352, “Synthesis of biologically active taxol analogues with modified phenylisoserine side chains” (1992).

Key:
Type in all cases: functional
B16 [1] = assay: Cytotoxicity against B16 melanoma cell line.; conditions: Mus musculus, read-out: ED50 (the source's name)
Tubulin (Bos taurus) [2] = target: T1, Tubulin (Bos taurus) (UniProt Q6B856+Q862L2+Q862F3); assay: Concentration to stimulate the assembly of tubulin into microtubules.
[3] = Ratio of ED50 of taxol to ED50 from cytotoxicity against B16 melanoma cell lines
[4] = Ratio of ED50 of taxol to ED50 from tubulin binding assay
B16 [5] = assay: Cytotoxicity against B16 melanoma cell line.62% inhibition at 42 uM.; conditions: Mus musculus, read-out: ED50 (the source's name)
Tubulin (Bos taurus) [6] = target: T1, Tubulin (Bos taurus); assay: Concentration to stimulate the assembly of tubulin into microtubules at a dose of […]
B16 [7] = assay: Cytotoxicity against B16 melanoma cell line.40% inhibition at 1 uM; conditions: Mus musculus, read-out: ED50 (the source's name)

Row | Compound | EC50 (B16 [1]) [nM] | ED50 (Tubulin (Bos taurus) [2]) [µM] | Ratio [3] | Ratio [4] | EC50 (B16 [5]) [µM] | ED50 (Tubulin (Bos taurus) [6]) [µM] | EC50 (B16 [7]) [nM]
1 | CC(=O)O[C@H]1C(=O)[C@@]2(C)[C@H]([C@H](OC(=O)c3ccccc3)[C@]3(O)C[C@H](OC(=O)[C@H](O)[C@@H](NC(=O)c4ccccc4)c4ccc(Cl)cc4)C(C)=C1C3(C)C)[C@]1(OC(C)=O)CO[C@@H]1C[C@@H]2O | 61 | 1.3 | 2.2 | 1.9 | – | – | –
2 | O=C(N[C@@H](c1ccccc1)[C@@H](O)C(=O)O)c1ccccc1 (relative stereo) | – | – | >360 | > 14 | > 10 | > 10 | –
3 | CC(=O)O[C@H]1C(=O)[C@@]2(C)[C@H]([C@H](OC(=O)c3ccccc3)[C@]3(O)C[C@H](O)C(C)=C1C3(C)C)[C@]1(OC(C)=O)CO[C@@H]1C[C@@H]2O [BACCATIN III] | – | – | >36 | > 14 | – | > 10 | > 1000
4 | CC(=O)O[C@H]1C(=O)[C@@]2(C)[C@H]([C@H](OC(=O)c3ccccc3)[C@]3(O)C[C@H](OC(=O)[C@H](O)[C@@H](NC(=O)c4ccc(Cl)cc4)c4ccccc4)C(C)=C1C3(C)C)[C@]1(OC(C)=O)CO[C@@H]1C[C@@H]2O | 43 | 1.7 | 1.5 | 2.4 | – | – | –
5 | CC(=O)O[C@H]1C(=O)[C@@]2(C)[C@H]([C@H](OC(=O)c3ccccc3)[C@]3(O)C[C@H](OC(=O)[C@H](O)[C@@H](NC(=O)c4ccccc4)c4ccccc4)C(C)=C1C3(C)C)[C@]1(OC(C)=O)CO[C@@H]1C[C@@H]2O [PACLITAXEL] | 28 | 0.7 | 1 | 1 | – | – | –
